Patent publication US20240132431A1, “METHOD FOR ALKYLATING ACIDIC FUNCTIONAL GROUP” (Chugai Seiyaku Kabushiki Kaisha, priority 2021, published 2024)
One block for each compound: values may come before it.

Target: T1, Bcl-2 protein (Recombinant Human Bcl-2 Protein) (Homo sapiens, UniProt P10415)
T1 construct: purchased Novus NBP2-34889
Assay: Binding evaluation of mixture library compounds to Bcl-2 using AS-MS (affinity selection mass spectrometry)
Conditions: for ASMS ratio (%) n = 1 / ASMS ratio (%) n = 2: ASMS Ratio(%)=(A−C)/B×100; for ASMS ratio (%) n = 1: replicate n = 1; for ASMS ratio (%) n = 2: replicate n = 2
Description: For one well of MICROPLATE, 96-well, PP, V-BOTTOM (Greiner bio-one, 651201), DMSO solutions of 12 mixtures (prepared to approximately 0.58 mM based on calculations from the average molecular weight of each mixture), in each of which 100 compounds are mixed, were each dispensed, and dispensed into a total of 12 wells, where the 12 mixtures are mixAI-B4J-01, mixAI-B1M-01, mixAI-B1K-01, mixAI-B10-01, mixAI-B1A-01, mixAI-B3A-01, mixAI-B21-01, mixAI-B2L-01, mixAI-B2N-01, mixAI-B2A-01, mixAI-B2Q-01, and mixAI-B2R-01 listed in [Table AI-03-B4J-01], [Table AI-03-B1M-01], [Table AI-03-B1K-01], [Table AI-03-B10-01], [Table AI-03-B1A-01], [Table AI-03-B3A-01], [Table AI-03-B2I-01], [Table AI-03-B2L-01], [Table AI-03-B2N-01], [Table AI-03-B2A-01], [Table AI-03-B2Q-01], and [AI-03-B2R-01] shown in Example 6. Using the LABCYTE ECHO® 555 Acoustic Dispensing System (BECKMAN COULTER), 70 nL was collected from each of the 12 wells into one arbitrary well to prepare a sample solution with 1200 compounds in the mixed state (the presence of 1152 compounds had already been identified when prepared in Example 6-5-3). (In the present specification, the mixture collected in this one well is referred to as one library.) Furthermore, a Bcl-2 protein (Novus, NBP2-34889, Recombinant Human Bcl-2 Protein, Lot E60145051) (19.2 μL) that had been prepared in advance to be 20.9 μM using a Tris-HCl buffer (25 mM Tris-HCl pH 7.4, 150 mM NaCl, 0.025% Tween-20, 1 mM DTT) was added to the well in which 1200 compounds (the presence of 1152 compounds had already been identified when prepared in Example 6-5-3) were dispensed (final compound concentration […], final Bcl-2 concentration 20 μM), and the mixture was incubated in the dark at 23° C. for 1 hour. Next, using the 96-well MacroSpin column, P-2 Material (Harvard, 74-5655) that had been swollen, conditioning of the 96-well MacroSpin column was performed three times by centrifugation with 200 μL of an assay buffer (25 mM Tris-HCl pH 7.4, 150 mM NaCl, 0.025% Tween-20, 1 mM DTT), 2000 XG, 4° C., 2 min. Subsequently, 20 μL of the sample after incubation was added to the 96-well MacroSpin column, P-2 Material, that had been conditioned, and SEC treatment was performed by centrifugation at 2000×G for 2 minutes. To the liquid passed from the SEC, 32 μL of a 1:1 mixed solution of acetonitrile and methanol (LC/MS grade, Fujifilm Wako Pure Chemical Corporation) was added, the mixture was centrifuged at 1800×G, 4° C., 5 min, and the supernatant was used as analysis sample ASMS (A), while a sample that had been prepared by the same operations at 1200 compounds/well and to which only the Tris-HCl buffer had been added without the Bcl-2 protein was incubated under the same conditions, no 96-well MacroSpin column treatment was performed, the same organic solvent was added, and the supernatant solution obtained by centrifugation was used as STD (B). Next, a sample that had been prepared by the same operations at 1200 compounds/well and to which only the Tris-HCl buffer had been added without the Bcl-2 protein was incubated under the same conditions, the same 96-well MacroSpin column treatment was performed, the same organic solvent was added, and the supernatant solution obtained by centrifugation was used as BK (C), and measured by reversed phase LC/MS.
Then, analysis of the 1200 compounds was carried out for samples A, B, and C with TraceFinder 5.1 (Thermo Fisher Scientific) and CHANCE Software (in-house), and the ASMS Ratio (%) was calculated according to the following calculation formula.
Calculation formula: ASMS Ratio(%)=(A−C)/B×100

[1] = AS-MS, mixture of 1200 compounds, Bcl-2
[2] = AS-MS on the mixture of 1200 library compounds

T1 sequence (P10415 whole entry): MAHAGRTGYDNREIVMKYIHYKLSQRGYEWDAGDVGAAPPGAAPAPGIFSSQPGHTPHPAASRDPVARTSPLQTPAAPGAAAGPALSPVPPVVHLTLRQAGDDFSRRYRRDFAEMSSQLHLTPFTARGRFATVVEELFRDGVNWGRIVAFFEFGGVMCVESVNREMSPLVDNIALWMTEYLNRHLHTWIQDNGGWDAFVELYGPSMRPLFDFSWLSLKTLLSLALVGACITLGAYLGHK

ASMS ratio (%) (n = 1): 0.9%
ASMS ratio (%) (n = 2): 0.0%
Compound: CCOc1cccc(-c2cc(CN3CCN(c4ccc(C(=O)NS(C)(=O)=O)cc4)CC3)cc(OC(F)(F)F)c2)c1 [B2I063-01, 4-[4-[[3-(3-Ethoxyphenyl)-5-(trifluoromethoxy)phenyl]methyl]piperazin-1-yl]-N-methylsulfonylbenzamide]

ASMS ratio (%) n = 1 (AS-MS, mixture library, Bcl-2): 0.0%
ASMS ratio (%) n = 2 (AS-MS, mixture library, Bcl-2): 0.0%
Compound: CCOc1cncc(-c2csc(C(=O)N3CCN(c4ccc(C(=O)NS(C)(=O)=O)cc4)CC3)c2)c1 [B2I024-01, 4-[4-[4-(5-Ethoxypyridin-3-yl)thiophene-2-carbonyl]piperazin-1-yl]-N-methylsulfonylbenzamide]

ASMS ratio (%) n = 1 [2]: −1.3%
ASMS ratio (%) n = 2 [2]: −4.1%
Compound: CCOc1cccc(C#Cc2cncc(C(=O)N3CCN(c4ccc(C(=O)Nc5ccc(OC)cc5)cc4)CC3)c2)c1 [B1O031-01, 4-[4-[5-[2-(3-Ethoxyphenyl)ethynyl]pyridine-3-carbonyl]piperazin-1-yl]-N-(4-methoxyphenyl)benzamide]

ASMS ratio (%) n = 2 [2]: 0.0%
Compound: CCOc1cncc(-c2cc(CN3CCN(c4ccc(C(=O)N(C)CC56CC7CC(CC(C7)C5)C6)cc4)CC3)cc(OCC)c2)c1 [B3A056-01, N-(1-Adamantylmethyl)-4-[4-[[3-ethoxy-5-(5-ethoxypyridin-3-yl)phenyl]methyl]piperazin-1-yl]-N-methylbenzamide]

ASMS ratio (%) n = 1 (AS-MS, mixture library, Bcl-2): 0.0%
ASMS ratio (%) n = 2 (AS-MS, mixture library, Bcl-2): 0.0%
Compound: CCOc1cccc(-c2ccc(C(C)N3CCN(c4ccc(C(=O)NS(=O)(=O)CC56CC7CC(CC(C7)C5)C6)cc4)CC3)c(F)c2)c1 (stereo not shown) [B2A099-01, N-(1-Adamantylmethylsulfonyl)-4-[4-[1-[4-(3-ethoxyphenyl)-2-fluorophenyl]ethyl]piperazin-1-yl]benzamide]

ASMS ratio (%) n = 1 [2]: 0.0%
ASMS ratio (%) n = 2 [2]: 0.0%
Compound: CCOc1cccc(-c2cnn(-c3cc(C(=O)N4CCN(c5ccc(C(=O)N(CC)CC)nn5)CC4)cc(C(F)(F)F)c3)c2)c1 [B4J021-01, 6-[4-[3-[4-(3-Ethoxyphenyl)pyrazol-1-yl]-5-(trifluoromethyl)benzoyl]piperazin-1-yl]-N,N-diethylpyridazine-3-carboxamide]

ASMS ratio (%) (n = 1): 0.0%
ASMS ratio (%) (n = 2): 0.0%
Compound: CCOc1cncc(C#Cc2cc(C(=O)N3CCN(c4ccc(C(=O)NS(C)(=O)=O)cc4)CC3)cc(C(F)(F)F)c2)c1 [B2I042-01, 4-[4-[3-[2-(5-Ethoxypyridin-3-yl)ethynyl]-5-(trifluoromethyl)benzoyl]piperazin-1-yl]-N-methylsulfonylbenzamide]

ASMS ratio (%) n = 1 [1]: 1.6%
ASMS ratio (%) n = 2 [1]: −0.9%
Compound: CCOc1cccc(-c2ccccc2CN2CCN(c3ccc(C(=O)NCC(F)(F)F)nn3)CC2)c1 [B1K071-01, 6-[4-[[2-(3-Ethoxyphenyl)phenyl]methyl]piperazin-1-yl]-N-(2,2,2-trifluoroethyl)pyridazine-3-carboxamide]

ASMS ratio (%) n = 1 [2]: −0.4%
ASMS ratio (%) n = 2 [2]: −4.5%
Compound: CCOc1cccc(-c2ccc(C(=O)N3CCN(c4ccc(C(=O)Nc5ccc(OC)cc5)cc4)CC3)cc2C)c1 [B1O025-01, 4-[4-[4-(3-Ethoxyphenyl)-3-methylbenzoyl]piperazin-1-yl]-N-(4-methoxyphenyl)benzamide]

ASMS ratio (%) n = 2 (AS-MS, mixture library, Bcl-2): 0.0%
Compound: CCOc1cccc(-c2cc(CN3CCN(c4ccc(C(=O)NS(=O)(=O)c5ccc(NCCSc6ccccc6)c([N+](=O)[O-])c5)nn4)CC3)cc(OC(C)C)c2)c1 [B2Q083-01, 6-[4-[[3-(3-Ethoxyphenyl)-5-propan-2-yloxyphenyl]methyl]piperazin-1-yl]-N-[3-nitro-4-(2-phenylsulfanylethylamino)phenyl]sulfonylpyridazine-3-carboxamide]

ASMS ratio (%) n = 1 (AS-MS, mixture library, Bcl-2): −1.9%
ASMS ratio (%) n = 2 (AS-MS, mixture library, Bcl-2): 0.0%
Compound: CCOc1cncc(-c2csc(C(=O)N3CCN(c4ccc(C(=O)NS(=O)(=O)CC56CC7CC(CC(C7)C5)C6)cc4)CC3)c2)c1 [B2A024-01, N-(1-Adamantylmethylsulfonyl)-4-[4-[4-(5-ethoxypyridin-3-yl)thiophene-2-carbonyl]piperazin-1-yl]benzamide]

ASMS ratio (%) n = 1 (AS-MS, mixture library, Bcl-2): 7.2%
ASMS ratio (%) n = 2 (AS-MS, mixture library, Bcl-2): 12.7%
Compound: CCOc1cccc(-c2cc(CN3CCN(c4ccc(C(=O)NS(=O)(=O)CC56CC7CC(CC(C7)C5)C6)nn4)CC3)cc(C(F)(F)F)c2)c1 [B2A087-01, N-(1-Adamantylmethylsulfonyl)-6-[4-[[3-(3-ethoxyphenyl)-5-(trifluoromethyl)phenyl]methyl]piperazin-1-yl]pyridazine-3-carboxamide]

The next lines start with the compound.

Compound: CCOc1cncc(-c2ccccc2CCC(=O)N2CCN(c3ccc(C(=O)NCC(F)(F)F)nn3)CC2)c1 [B1K012-01, 6-[4-[3-[2-(5-Ethoxypyridin-3-yl)phenyl]propanoyl]piperazin-1-yl]-N-(2,2,2-trifluoroethyl)pyridazine-3-carboxamide]
ASMS ratio (%) n = 1 [1]: 0.0%
ASMS ratio (%) n = 2 [1]: −0.4%

Compound: 6-[4-[3-[2-(3-Ethoxyphenyl)phenyl]propanoyl]piperazin-1-yl]-N-propylpyridazine-3-carboxamide [B1M067-01]
ASMS ratio (%) n = 1 [1]: −1.6%
ASMS ratio (%) n = 2 [1]: −87.4%

Compound: CCOc1cccc(-c2cc(OC)c(CN3CCN(c4ccc(C(=O)NCC(F)(F)F)cc4)CC3)c(OC)c2)c1 [B1K059-01]
ASMS ratio (%) n = 1 [1]: 3.0%
ASMS ratio (%) n = 2 [1]: −1.9%

Compound: CCOc1cccc(-c2csc(C(=O)N3CCN(c4ccc(C(=O)NCC56CC7CC(CC(C7)C5)C6)nn4)CC3)c2)c1 [B1A001-01, N-(1-Adamantylmethyl)-6-[4-[4-(3-ethoxyphenyl)thiophene-2-carbonyl]piperazin-1-yl]pyridazine-3-carboxamide]
ASMS ratio (%) n = 1 [1]: 17.6%
ASMS ratio (%) n = 2 [1]: −0.7%

Compound: 6-[4-[4-(3-Ethoxyphenyl)-3-methylbenzoyl]piperazin-1-yl]-N-propylpyridazine-3-carboxamide [B1M036-01]
ASMS ratio (%) n = 1 [1]: 6.7%
ASMS ratio (%) n = 2 [1]: −1.2%

Compound: CCOc1cccc(-c2ccccc2CCC(=O)N2CCN(c3ccc(C(=O)N(CC)CC)cc3)CC2)c1 [B4J033-01, 4-[4-[3-[2-(3-Ethoxyphenyl)phenyl]propanoyl]piperazin-1-yl]-N,N-diethylbenzamide]
ASMS ratio (%) n = 1 [2]: 0.0%
ASMS ratio (%) n = 2 [2]: −0.9%

Compound: CCOc1cccc(-c2cc(C(=O)N3CCN(c4ccc(C(=O)N(CC)CC)cc4)CC3)cc(C(F)(F)F)c2)c1 [B4J039-01, 4-[4-[3-(3-Ethoxyphenyl)-5-(trifluoromethyl)benzoyl]piperazin-1-yl]-N,N-diethylbenzamide]
ASMS ratio (%) n = 1 [2]: 2.2%
ASMS ratio (%) n = 2 [2]: 0.1%

Compound: CCOc1cccc(-c2cc(CN3CCN(c4ccc(C(=O)NS(=O)(=O)CCC(F)(F)F)cc4)CC3)cc(C(F)(F)F)c2)c1 [B2N061-01]
ASMS ratio (%) (n = 1): 0.0%
ASMS ratio (%) (n = 2): 0.0%

Compound: CCOc1cccc(-c2csc(CN3CCN(c4ccc(C(=O)NCC56CC7CC(CC(C7)C5)C6)cc4)CC3)c2)c1 [B1A067-01, N-(1-Adamantylmethyl)-4-[4-[[4-(3-ethoxyphenyl)thiophen-2-yl]methyl]piperazin-1-yl]benzamide]
ASMS ratio (%) n = 1 [1]: 3.6%
ASMS ratio (%) n = 2 [1]: −7.8%
